From patent US6455590B1, “Deprenyl compounds for treatment of glaucoma” (University of Toronto Innovations.Foundation, priority 1995, dated 2002)

Columns and labels:
[1] = Stability of deprenyl as a function of the pH of the medium; assay type: physicochemical; conditions: pH about 3-5 versus pH about 7
From the text: The stability of deprenyl can be affected by the pH of the medium in which the deprenyl is formulated. […] Therefore, when formulating a deprenyl compound in a pharmaceutical composition, it is preferred that the deprenyl compound be maintained at a suitable pH. In preferred embodiments, a pharmaceutical composition of the invention has a pH in the range of about 3 to about 5, more preferably about 3 to about 4. Furthermore, ethyl alcohol is a preferred solvent for improving stability of deprenyl. Thus, in certain embodiments, alcoholic or aqueous alcoholic media are preferred for the pharmaceutical compositions of the invention.

cell death = experiment: Animal and cell-culture studies of prevention of cell death with the P450 inhibitor Proadifen; conditions: co-administration of the P450 inhibitor Proadifen
From the text: It is believed that certain deprenyl compounds can be at least partially metabolized in vivo after administration to a subject. For example, (−)-deprenyl can be metabolized by the liver to (−)-desmethyldeprenyl, as well as (−)-methamphetamine and (−)-amphetamine, after oral administration. The hepatic metabolism of (−)-deprenyl can be inhibited by administration of a P450 inhibitor such as Proadifen. […] It is presently believed that (−)-methamphetamine and (−)-amphetamine are inhibitors of the cell-rescuing activity of deprenyl compounds. […] Absence of MAO inhibitor activity may in fact provide a drug with fewer side effects.

[2] = system: retinal ganglion cells projecting to the superior colliculus (RGC^SCs) / RGCL neuronal cell bodies; experiment: Optic nerve crush in rats: counts of Nissl-stained and Fluoro-Gold-labelled cell bodies in the retinal ganglion cell layer; assay type: in vivo; conditions: for counts of RGCL neuronal cell bodies (RGCLncbs) per mm length of retinal cross-section: Nissl stain, FIG. 1
From the text: All animals were handled according to the Declaration of Helsinki and The Guiding Principles in the Care and Use of Animals. […] The injections were delivered from a 10 microliter Hamilton syringe over a period of fifteen minutes.
It has been reported that 40-50% of the neurons whose cell bodies are located in the retinal ganglion cell layer (RGCL) of the rat send an axon to the optic nerve and are RGCs (Cowey et al. (1979) Exp. Brain Res. 35, 457-64; Perry V. H. (1981) Neuroscience 6, 931-44: and Linden et al. (1989) Brain Res. 272, 145-149). […] Most RGCs (>95%) in rats send their axons to the SC with as many as 10% also sending branches to the lateral geniculate body (Cowey et al. (1979) Exp. Brain Res. 35, 457-64).
Four days were allowed for the retrograde transport of the FG to the RGC^SCs cell bodies and then the left optic nerve of the rats was exposed and crushed by applying the tips of Dumont number 5 forceps to the nerve immediately behind the globe for ten seconds. Careful attention was used to avoid the central retinal artery. Each nerve was crushed three times at the same site. Following the crushes, the nerve was examined with the aid of an operating microscope to ensure that the axonal component of the nerve was divided into two clearly separated stumps surrounded by an unbroken dural sheath. Retinal artery patency was confirmed by direct ophthalmoscopy.
One group of eight rats received (−)-deprenyl (1 mg/kg) by intraperitoneal (IP) injection every two days for a fourteen day period beginning at the time of optic nerve crush. The remaining group of eight rats received IP injections of saline on the same schedule. Fourteen days after the optic nerve crush all sixteen rats were euthanized with an overdose of somnotol and perfused transcardially with 4% paraformaldehyde in phosphate buffer. The brains and retinas were immersed in 20% sucrose for twenty four hours and then frozen in −70 degrees C methylbutane. Serial […] sections were cut through the upper brain stem and diencephalon of the animals and viewed under fluorescence microscopy to determine the location and extent of the stereotactic injections of FG. Serial […] sections of the retinas were cut and every third section was Nissl stained. In order to detect even low level FG fluorescence in neuronal cell bodies or processes, the FG labelled brain sections and the retinal sections were examined with the aid of a Hamarmatsu intensification camera that allowed the fluorescent images to be digitized using a Matrox frame grabber controlled by image analysis software (Universal Metamorph). This allowed for the creation of computer images of neuronal cell bodies containing FG in the sections taken from areas of the stereotactic injections and sections taken through each of the retinas.
About 25 sections were chosen randomly from the serial sections taken from each retina. Sections were only chosen from the middle 70% of the serial sections where section length exceeded 6 mm. Nissl stained cell bodies in the RGCL were counted at 1000× magnification under oil immersion on a Leitz Orthoplan microscope. RGCL somata were only counted if they contained a well defined nucleus. The cross sectional length of the ganglion cell layer for each section was measured by transferring the retinal section image into a computer using a CCD camera (Dage Ltd.) and IPPLUS 2.1 software (Media Cybernetics). The number of RGCL neuronal cell bodies (RGCLncbs) per mm length of retinal crossection was calculated and were pooled for each of the four lesion/treatment groups (uncrushed-saline, uncrushed-deprenyl, crushed-saline and crushed-deprenyl).
A similar group of sections were randomly chosen from one of the two remaining series of retinal sections. […]

SMILES	stability depending on pH of the medium [1]	effect of Proadifen on cell-rescuing activity (prevention of cell death) (cell death)	counts of RGCL neuronal cell bodies (RGCLncbs) per mm length of retinal cross-section ([2]; crushed optic nerve, 14 days after crush, (−)-deprenyl 1 mg/kg IP every two days)	RGC^SCs as percentage of the mean value of the distribution for the uncrushed saline retinas ([2]; crushed optic nerve, 14 days, crushed saline 3.0%, FIG. 3)	numbers of neuronal cell bodies/mm in the RGCL as average percent of those in uncrushed saline retinae ([2]; crushed optic nerve, 14 days, crushed saline 46%)	slope of FG labelled versus Nissl stained cell body counts ([2]; crushed retinas, FIG. 2)	mean ratio of FG labelled to Nissl stained somata ([2]; crushed retinas, crushed saline 0.003)	survival of RGCs at fourteen days ([2]; crushed retinas, estimated assuming 40-50% of RGCL neurons do not send axons to the optic nerve, crushed saline less than 10%)	counts of RGCL neuronal cell bodies (RGCLncbs) per mm length of retinal cross-section ([2]; uncrushed optic nerve, (−)-deprenyl 1 mg/kg IP every two days for 14 days)
C#CCN(C)C(C)Cc1ccccc1 (single isomer, unassigned; (-)) [(−)-deprenyl, N,α-dimethyl-N-2-propynylphenethylamine]	more stable at a pH in the range of about 3-5 than at a pH of about 7	Proadifen reduces the ability of (−)-deprenyl to prevent cell death	32.60+/−9.94	36.9+/−11.2%	65%	0.219+/−0.019	0.245+/−0.055	30-40%	48.39+/−8.48 /mm
C#CCN[C@H](C)Cc1ccccc1 [(−)-desmethyldeprenyl]	–	does not block the cell-rescuing activity	–	–	–	–	–	–	–
